Measurements: patent US10703757B2, “Compounds and methods for CDK8 modulation and indications therefor” (Plexxikon Inc., priority 2016, dated 2020)

Columns and labels:
[1] = tested on: CDK8 (TCF/LEF luciferase reporter in HCT116 cells); test: Cell based TCF/LEF reporter assay (HCT116+TCF/LEF luciferase); conditions: Homo sapiens, HCT-116, 24 h
Summary of the method: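 Luciferase readout was corrected for viability (CellTiter-Fluor) and scaled between DMSO high and 10 uM CCT251545 low controls, giving IC50 by nonlinear regression. Compounds, serially diluted, were incubated 24 h at 37 °C on HCT116 clones stably expressing a TCF/LEF-driven luciferase reporter.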

[2] = tested on: CDK8 (phosphorylation of STAT1 at serine 727 in A549 cells); test: Cell based Phospho-STAT1 assay (IFNγ-stimulated A549 cells, AlphaLISA); conditions: Homo sapiens, A549, A549 cells, phospho-STAT1 after IFNγ stimulation
Summary of the method: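 A549 cells given serial compound dilutions for 1 h at 37 °C, then stimulated with IFNγ at 10 ng/mL final for 30 min. Lysate STAT1 Ser727 phosphorylation measured by AlphaLISA; % inhibition vs stimulated/unstimulated DMSO controls, IC50 by nonlinear regression.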

SMILES | IC50 [1] | IC50 [2]
CC(C)(O)Cn1cc(-c2ccc(-c3cnc4[nH]ccc4c3C#CC(C)(C)C(N)=O)cc2)cn1 [Compound P-0133, 4-[5-[4-[1-(2-hydroxy-2-methyl-propyl)pyrazol-4-yl]phenyl]-1H-pyrrolo[2,3-b]pyridin-4-yl]-2,2-dimethyl-but-3-ynamide] | 100 to 1000 nM | 100 to 1000 nM
CC(C)(O)Cn1cc2cc(-c3cnn4ccnc(C5=CCC(C#N)CC5)c34)ccc2n1 (centres unmarked) [Compound P-0106, 4-(3-(2-(2-hydroxy-2-methylpropyl)-2H-indazol-5-yl)pyrazolo[1,5-a]pyrazin-4-yl)cyclohex-3-ene-1-carbonitrile] | 100 to 1000 nM | 0.1 to 100 nM
CC(C)(C)COc1ccc(-c2cnn3cccc(N4CCC(C#N)CC4)c23)cc1 [Compound P-0266, 1-(3-(4-(neopentyloxy)phenyl)pyrazolo[1,5-a]pyridin-4-yl)piperidine-4-carbonitrile] | 1000 to 10000 nM | 1000 to 10000 nM
CN1CCN(C(=O)c2ccc3cc(-c4cnc5[nH]ccc5c4N4CCC(C#N)CC4)ccc3c2)CC1 [Compound P-0328, 1-(5-(6-(4-methylpiperazine-1-carbonyl)naphthalen-2-yl)-1H-pyrrolo[2,3-b]pyridin-4-yl)piperidine-4-carbonitrile] | 0.1 to 100 nM | 0.1 to 100 nM
N#CC1CCN(c2cccn3ncc(-c4ccc(-n5cccn5)cc4)c23)CC1 [Compound P-0363, 1-(3-(4-(1H-pyrazol-1-yl)phenyl)pyrazolo[1,5-a]pyridin-4-yl)piperidine-4-carbonitrile] | 0.1 to 100 nM | 0.1 to 100 nM
CS(=O)(=O)Nc1ccc2cc(-c3cnn4cccc(C5=CCC(C#N)CC5)c34)ccc2n1 (centres unmarked) [Compound P-0150, N-(6-(4-(4-cyanocyclohex-1-en-1-yl)pyrazolo[1,5-a]pyridin-3-yl)quinolin-2-yl)methanesulfonamide] | 0.1 to 100 nM | 0.1 to 100 nM
N#CC1CC=C(c2nccn3ncc(-c4ccc5c(cnn5C(F)F)c4)c23)CC1 (centres unmarked) [Compound P-0114, 4-(3-(1-(difluoromethyl)-1H-indazol-5-yl)pyrazolo[1,5-a]pyrazin-4-yl)cyclohex-3-ene-1-carbonitrile] | 0.1 to 100 nM | 0.1 to 100 nM
CC(C)(C#Cc1cccn2ncc(-c3ccc(-c4cnn(CCN5CCCC5)c4)cc3)c12)C(N)=O [Compound P-0465, 2,2-dimethyl-4-(3-(4-(1-(2-(pyrrolidin-1-yl)ethyl)-1H-pyrazol-4-yl)phenyl)pyrazolo[1,5-a]pyridin-4-yl)but-3-ynamide] | 0.1 to 100 nM | 0.1 to 100 nM
CC(C)(C#Cc1nccn2ncc(-c3ccc(-c4cnn(CCCC#N)c4)cc3)c12)C(N)=O [Compound P-0456, 4-(3-(4-(1-(3-cyanopropyl)-1H-pyrazol-4-yl)phenyl)pyrazolo[1,5-a]pyrazin-4-yl)-2,2-dimethylbut-3-ynamide] | 0.1 to 100 nM | 0.1 to 100 nM
Cn1ncc2cc(-c3cnn4cccc(N5CCC6(CCNC6=O)CC5)c34)ccc21 [Compound P-0169, 8-(3-(1-methyl-1H-indazol-5-yl)pyrazolo[1,5-a]pyridin-4-yl)-2,8-diazaspiro[4.5]decan-1-one] | 0.1 to 100 nM | 0.1 to 100 nM
N#CC1CC=C(c2c(-c3ccc4[nH]c(=O)[nH]c4c3)cnc3[nH]ccc23)CC1 (centres unmarked) [Compound P-0206, 4-(5-(2-oxo-2,3-dihydro-1H-benzo[d]imidazol-5-yl)-1H-pyrrolo[2,3-b]pyridin-4-yl)cyclohex-3-ene-1-carbonitrile] | 0.1 to 100 nM | 0.1 to 100 nM
N#CC1CC=C(c2c(-c3ccc4c(c3)CNC4=O)cnc3[nH]ccc23)CC1 (centres unmarked) [Compound P-0244, 4-(5-(1-oxoisoindolin-5-yl)-1H-pyrrolo[2,3-b]pyridin-4-yl)cyclohex-3-ene-1-carbonitrile] | 100 to 1000 nM | 100 to 1000 nM
CC(C)Cn1cc(-c2ccc(-c3cnn4ccnc(C5=CCC(C#N)CC5)c34)cc2)cn1 (centres unmarked) [Compound P-0035, 4-(3-(4-(1-isobutyl-1H-pyrazol-4-yl)phenyl)pyrazolo[1,5-a]pyrazin-4-yl)cyclohex-3-ene-1-carbonitrile] | 0.1 to 100 nM | 0.1 to 100 nM
CC(C)(O)Cn1cc(-c2ccc(-c3cnc4[nH]cc(Cl)c4c3N3CCC(C#N)CC3)cc2)cn1 [Compound P-0204, 1-(3-chloro-5-(4-(1-(2-hydroxy-2-methylpropyl)-1H-pyrazol-4-yl)phenyl)-1H-pyrrolo[2,3-b]pyridin-4-yl)piperidine-4-carbonitrile] | 0.1 to 100 nM | 0.1 to 100 nM
COc1ccc2ccc(-c3cnn4ccnc(C5=CCC(C#N)CC5)c34)cc2n1 (centres unmarked) [Compound P-0165, 4-(3-(2-methoxyquinolin-7-yl)pyrazolo[1,5-a]pyrazin-4-yl)cyclohex-3-ene-1-carbonitrile] | 1000 to 10000 nM | 100 to 1000 nM
N#CC1CCC(c2cccn3ncc(-c4ccc(NCCN5CCOCC5)nc4)c23)CC1 (centres unmarked) [Compound P-0138, 4-(3-(6-((2-morpholinoethyl)amino)pyridin-3-yl)pyrazolo[1,5-a]pyridin-4-yl)cyclohexane-1-carbonitrile] | 0.1 to 100 nM | 0.1 to 100 nM
CNC(=O)c1ccc2cc(-c3cnc4[nH]ccc4c3C3=CCC(C#N)CC3)ccc2c1 (centres unmarked) [Compound P-0268, 6-(4-(4-cyanocyclohex-1-en-1-yl)-1H-pyrrolo[2,3-b]pyridin-5-yl)-N-methyl-2-naphthamide] | 0.1 to 100 nM | 0.1 to 100 nM

More lines, now with the values ahead:

IC50 [1] | IC50 [2] | SMILES
0.1 to 100 nM | 0.1 to 100 nM | Cn1cc(-c2ccc(-c3cnn4cccc(C5=CCC(C(N)=O)CC5)c34)cc2)cn1 (centres unmarked) [Compound P-0443, 4-(3-(4-(1-methyl-1H-pyrazol-4-yl)phenyl)pyrazolo[1,5-a]pyridin-4-yl)cyclohex-3-ene-1-carboxamide]
1000 to 10000 nM | 1000 to 10000 nM | FC(F)n1cc(-c2ccc(-c3cnc4cccc(OC5COC5)n34)cc2)cn1 [Compound P-0284, 3-(4-(1-(difluoromethyl)-1H-pyrazol-4-yl)phenyl)-5-(oxetan-3-yloxy)imidazo[1,2-a]pyridine]
0.1 to 100 nM | 0.1 to 100 nM | Cn1cc(-c2ccc(-c3cnc4[nH]ccc4c3C3=CCC(C#N)CC3)cc2)cn1 (centres unmarked) [Compound P-0359, 4-(5-(4-(1-methyl-1H-pyrazol-4-yl)phenyl)-1H-pyrrolo[2,3-b]pyridin-4-yl)cyclohex-3-ene-1-carbonitrile]
0.1 to 100 nM | 0.1 to 100 nM | N#CC1CC=C(c2nccn3ncc(-c4ccc(N5CCOCC5)c(F)c4)c23)CC1 (centres unmarked) [Compound P-0102, 4-(3-(3-fluoro-4-morpholinophenyl)pyrazolo[1,5-a]pyrazin-4-yl)cyclohex-3-ene-1-carbonitrile]
0.1 to 100 nM | 0.1 to 100 nM | COc1ccc2cc(-c3cnn4cccc(C5=CCC(C#N)CC5)c34)ccc2n1 (centres unmarked) [Compound P-0242, 4-(3-(2-methoxyquinolin-6-yl)pyrazolo[1,5-a]pyridin-4-yl)cyclohex-3-ene-1-carbonitrile]
100 to 1000 nM | 1000 to 10000 nM | N#CC1CCN(c2c(-c3ccc4cc(C(=O)O)ccc4c3)cnc3[nH]ccc23)CC1 [Compound P-0200, 6-(4-(4-cyanopiperidin-1-yl)-1H-pyrrolo[2,3-b]pyridin-5-yl)-2-naphthoic acid]
0.1 to 100 nM | 0.1 to 100 nM | CC(C)(C#Cc1cccn2ncc(-c3ccc(-c4cnn(CC5CC5)c4)cc3)c12)C(N)=O [Compound P-0463, 4-(3-(4-(1-(cyclopropylmethyl)-1H-pyrazol-4-yl)phenyl)pyrazolo[1,5-a]pyridin-4-yl)-2,2-dimethylbut-3-ynamide]
0.1 to 100 nM | 0.1 to 100 nM | CS(=O)(=O)Nc1ccc2cc(-c3cnn4ccnc(C5=CCC(C#N)CC5)c34)ccc2n1 (centres unmarked) [Compound P-0151, N-(6-(4-(4-cyanocyclohex-1-ene-1-yl)pyrazolo[1,5-a]pyrazin-3-yl)quinolin-2-yl)methanesulfonamide]
0.1 to 100 nM | 0.1 to 100 nM | N#CC1CCC(c2cccn3ncc(-c4ccc(OCC(O)CN5CCCCC5)cc4)c23)CC1 (centres unmarked) [Compound P-0143, 4-(3-(4-(2-hydroxy-3-(piperidin-1-yl)propoxy)phenyl)pyrazolo[1,5-a]pyridin-4-yl)cyclohexane-1-carbonitrile]
0.1 to 100 nM | 0.1 to 100 nM | CC(C)(C#Cc1cccn2ncc(-c3ccc(-c4cnn(CC5COC5)c4)cc3)c12)C(N)=O [Compound P-0470, 2,2-dimethyl-4-(3-(4-(1-(oxetan-3-ylmethyl)-1H-pyrazol-4-yl)phenyl)pyrazolo[1,5-a]pyridin-4-yl)but-3-ynamid]
0.1 to 100 nM | 0.1 to 100 nM | N#CC1CCC(c2nccn3ncc(-c4ccc(-c5cnn(CCN6CCOCC6)c5)cc4)c23)CC1 (centres unmarked) [Compound P-0016, (1s,4s)-4-(3-(4-(1-(2-morpholinoethyl)-1H-pyrazol-4-yl)phenyl)pyrazolo[1,5-a]pyrazin-4-yl)cyclohexane-1-carbonitrile]
0.1 to 100 nM | 0.1 to 100 nM | N#CC1CCC(c2cccn3ncc(-c4ccc(-n5cccn5)cc4)c23)CC1 (centres unmarked) [Compound P-0218, 4-(3-(4-(1H-pyrazol-1-yl)phenyl)pyrazolo[1,5-a]pyridin-4-yl)cyclohexane-1-carbonitrile]
100 to 1000 nM | 0.1 to 100 nM | N#CC1CC=C(c2nccn3ncc(-c4cnn(-c5ccc(F)cc5)c4)c23)CC1 (centres unmarked) [Compound P-0103, 4-(3-(1-(4-fluorophenyl)-1H-pyrazol-4-yl)pyrazolo[1,5-a]pyrazin-4-yl)cyclohex-3-ene-1-carbonitrile]
0.1 to 100 nM | 0.1 to 100 nM | COc1ccc(-c2cnn3ccnc(C4=CCC(C#N)CC4)c23)cc1F (centres unmarked) [Compound P-0104, 4-(3-(3-fluoro-4-methoxyphenyl)pyrazolo[1,5-a]pyrazin-4-yl)cyclohex-3-ene-1-carbonitrile]
